Data on 2 molecules can be found in patent publication US12617757B2, “Compounds and modules for inhibition of pre-miR-21 and their use in treatment of certain cancers” (University of Florida Research Foundation, Incorporated, priority 2019, dated 2026).

The target of one assay is T1, RNase L (Homo sapiens, UniProt Q05823).
T1 sequence (Q05823 1-741): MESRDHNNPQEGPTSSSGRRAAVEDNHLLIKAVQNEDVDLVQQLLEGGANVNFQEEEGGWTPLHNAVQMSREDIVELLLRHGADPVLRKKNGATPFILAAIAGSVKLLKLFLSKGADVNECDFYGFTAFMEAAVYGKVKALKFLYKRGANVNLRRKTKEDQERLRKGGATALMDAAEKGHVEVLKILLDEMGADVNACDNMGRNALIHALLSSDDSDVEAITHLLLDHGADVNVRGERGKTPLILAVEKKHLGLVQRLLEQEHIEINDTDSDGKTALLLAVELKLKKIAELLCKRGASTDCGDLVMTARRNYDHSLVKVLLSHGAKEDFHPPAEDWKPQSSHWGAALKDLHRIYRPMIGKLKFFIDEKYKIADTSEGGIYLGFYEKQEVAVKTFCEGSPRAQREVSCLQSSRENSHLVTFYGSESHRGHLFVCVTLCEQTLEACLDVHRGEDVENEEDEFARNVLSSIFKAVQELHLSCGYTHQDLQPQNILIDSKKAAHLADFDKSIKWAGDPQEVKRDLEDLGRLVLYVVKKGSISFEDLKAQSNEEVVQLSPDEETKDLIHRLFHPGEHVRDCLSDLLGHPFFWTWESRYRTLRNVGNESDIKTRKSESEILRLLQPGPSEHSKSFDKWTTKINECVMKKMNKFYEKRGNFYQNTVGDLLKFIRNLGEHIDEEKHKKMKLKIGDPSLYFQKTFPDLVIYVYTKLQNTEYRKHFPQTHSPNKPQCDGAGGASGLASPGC
Nature of the assay: In vitro RNase L oligomerization. The class given is biochemical. Also noted: GST; made in house. On the procedure:
In Vitro RNase L Oligomerization. An aliquot of RNase L (3 μM) in 1×RNase L Buffer was supplemented with 10 mM MgCl2, fresh 7 mM β-mercaptoethanol, and 50 μM of ATP. RNase L oligomerization was performed as previously described^13 using dilutions of 2′-5′ A4 or compounds (2 or 5) prepared in 1×RNase L Buffer. A Western blot (described below) was run to resolve monomeric and oligomeric RNase L populations using RNase L primary antibody (1:5000 dilution; Cell Signaling Technology: D4B4J) overnight at 4° C. in 1×TBST containing 5% nonfat dry milk and 1:10000 anti-rabbit IgG horseradish peroxidase secondary antibody conjugate (Cell Signaling Technology: 7074S) in 1×TBST containing 5% nonfat dry milk for 2 h at room temperature.

The next assay has as its system pre-miR-21. Nature of the assay: Measurement of catalytic activity in MDA-MB-231 cells. The class given is cell-based, human. On the procedure: Measurement of Catalytic Activity. The MDA-MB-231 cells were plated into a 24-well plates (Corning). At ˜80% confluency, the media was aspirated and the cell monolayer was washed with 1×DPBS. Cells were then incubated with 5 (500 nM) or vehicle (DMSO) diluted in cell culture medium for 24 h. Cells were then lysed using 250 μL of RNA Lysis Buffer from a Quick-RNA MiniPrep Kit (Zymo Research). A 100 μL aliquot was transferred to black, non-binding surface, half area 96-well plates (Corning). Fractions of untreated cell lysate were combined and used to generate a standard curve of 5 in cell lysate, by spiking in known concentrations of 5. Fluorescence intensity (Ex: 345 nm, Em: 460 nm) was then measured on a Molecular Devices SpectraMax M5 plate reader to determine compound concentration in cell lysate. Using the generated standard curve, the concentration of 5 in the […] cell lysate aliquot was then used to extrapolate the amount of 5 in pmol in the full 250 μL volume.
RNA was extracted from the cell lysates, followed by RT-qPCR as described above. A standard curve was generated for the pre-miR-21 WT transcript using in vitro transcribed pre-miR-21 (10 ng, 1 ng, 0.1 ng, 0.01 ng, 0.001 ng, 0.0001 ng, 0 ng) completed with each run to accurately calibrate Ct values. The amount of cleaved pre-miR-21 was then calculated by taking the difference between the pmol of pre-miR-21 in untreated samples and the pmol of pre-miR-21 in 5-treated samples. Catalytic activity, or turnover, was calculated by taking the ratio of the pmol of cleaved pre-miR-21 and the pmol of 5 in the sample.

In the next assay the test system is MCF-10a cells. Description: Boyden chamber invasion assay, MCF-10a. The class given is cell-based. As to conditions: for effect on invasion induced by overexpression of pre-miR-21: MCF-10a + pre-miR-21. On the procedure:
Boyden Chamber Invasion Assay. The MDA-MB-231, MDA-LM2, A375, A549, or MCF-10a cells (5×10^4) were seeded into Hanging Cell Culture Inserts for 24 well plates with uncoated membranes with 8.0 μm pores (Millicell) in serum free growth media. A 3 mg/mL layer (100 μL) of Matrigel (Fisher Scientific: CB40234) diluted with serum free growth media was prepared inside of each membrane. Cells were cultured as described above, with or without compound treatment, and allowed to invade towards complete growth media in the bottom well for 16-24 h before ending the experiment by removing the media in the bottom wells and inserts. The hanging cell culture inserts and bottom wells were washed twice with 1×PBS, gently shaking to mix. Excess liquid and cells inside the insert were removed with cotton swabs, after which 400 μL of 4% paraformaldehyde was placed into the bottom well and incubated for 20 min at room temperature to fix the cells. The wells and inserts were washed twice with 1×PBS and then treated with 400 μL of 0.1% crystal violet solution for 20 min at room temperature to stain the cells. The wells and inserts were washed twice with water, followed by one wash with 1×PBS. Inserts were dried with cotton swabs to remove extra stain and cells inside the insert, then were air-dried, followed by Brightfield microscopic analysis using a Leica DMI3000 B […] fluorescent microscope. Four different fields of view from each captured image were counted for crystal violet stained or unstained cells. Normalized cells invaded was calculated with equation 5 (Eq 5): […]
where stained cells represent cells counted with crystal violet stain observed in the compound treated or vehicle treated samples, respectively.

The next assay has as its system pre-miR-21 WT RNA. Description: In vitro Dicer processing of pre-miR-21 WT. The class given is biochemical. An excerpt: In vitro Dicer processing. […] Cleavage products were resolved on a denaturing 15% polyacrylamide gel, which was imaged using a Molecular Dynamics Typhoon phosphorimager and quantified with Bio-Rad's QuantityOne software, normalizing to full length RNA.

For a further assay, the system named is PTEN. Nature of the assay: PTEN 3′ UTR luciferase reporter assay in MDA-MB-231 cells. The class given is cell-based, human. How it is done: PTEN Luciferase Assay. The MDA-MB-231 cells were grown in 48-well plates to ˜60% confluency and then transiently co-transfected with a Firefly luciferase plasmid encoding the 3′ untranslated region (UTR) of PTEN^25 and a control Renilla luciferase plasmid using Lipofectamine 2000 per the manufacturer's protocol. At 5 h post-transfection, compounds diluted in growth medium were added to cells and then incubated for 48 h. Luciferase assays were completed using a previously described protocol^23,26. Luminescence signal was measured on a Biotek Flx800 plate reader.
(Reporter assays use an easily measured gene product as a stand-in for the process of interest.)

Consider `CCCN(CC(=O)N(CCC)CC(=O)N(CCC)CC(=O)N(CC(=O)NCCOCCOCCOCCOc1ccc(C=C2SC(Nc3ccccc3)=C(C(=O)OCC)C2=O)cc1O)Cc1cn(CCCNC(=O)CCCOc2ccc(-c3nc4cc(-c5ccc(N6CCN(C)CC6)cc5)ccc4[nH]3)cc2)nn1)C(=O)CN(Cc1cn(CCCNC(=O)CCCOc2ccc(-c3nc4cc(-c5ccc(N6CCN(C)CC6)cc5)ccc4[nH]3)cc2)nn1)C(C)=O` [Compound 5], for which, at RNase L, the “oligomerization of RNase L” value is given as “oligomerization of RNase L”. The “Average pre-miR-21” value in the assay on pre-miR-21 (500 nM, 24 h, MDA-MB-231, mean ± s.d. (n = 6)) is 16 ± 3.8 pmol. Moreover, the “Cleaved pre-miR-21” value in the assay on pre-miR-21 (500 nM, 24 h, difference untreated minus treated, mean ± s.d.) amounted to 68 ± 6.7 pmol. Also, the Turnovers with pre-miR-21 (500 nM, 24 h, ratio Cleaved pre-miR-21 / 5 Detected, mean ± s.d.) was determined as 26 ± 2.5. Moreover, the “moles of pre-miR-21 cleaved by one mole of compound” value in the assay on pre-miR-21 (MDA-MB-231) was 26 mol. In addition, the “effect on invasion induced by overexpression of pre-miR-21” value in the assay with MCF-10a cells is on record as “decreased invasion”; with MCF-10a cells (listed as Formula 5), “inhibited invasion”. Further, the effect on invasion entry in the assay on MCF-10a cells (MCF-10a, no pre-miR-21 overexpression) is on record as “no effect on invasion”.
Turning to `CCCN(CC(=O)N(CCC)CC(=O)N(CCC)CC(=O)N(CC(N)=O)Cc1cn(CCCNC(=O)CCCOc2ccc(-c3nc4cc(-c5ccc(N6CCN(C)CC6)cc5)ccc4[nH]3)cc2)nn1)C(=O)CNCc1cn(CCCNC(=O)CCCOc2ccc(-c3nc4cc(-c5ccc(N6CCN(C)CC6)cc5)ccc4[nH]3)cc2)nn1` [Compound 2], the “inhibition of / protection from Dicer processing” value in the assay on pre-miR-21 WT RNA is “Protection with compound is observed at U23 (boxes marked with arrows) and U26 and U27”. Moreover, the “increase of PTEN luciferase signal relative to mock or scramble controls” value in the assay on PTEN was around 1.5 fold. The “increase of PTEN levels” value in the assay on PTEN (10 μM) is given as around 50%.
